± gives the standard deviation of the averaged measurements.
What was measured:
[1] = compound: COc1ccc(-c2cc3c(C)nc(N)nc3n([C@H]3CC[C@H](OCCO)CC3)c2=O)cn1; test: surviving fraction relative to DMSO-only wells; higher = less growth inhibition; settings: exposure time: 5 days
How it was run: (§1)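 Inhibitors at 0.5, 1, 5, 10, 50, 100, 500 and 1000 nM were applied continuously for five days to tumour cell lines seeded in log phase at 250–500 cells per well in 384-well plates 24 hours earlier. Viability was measured by CellTiter-Glo luminescence and expressed as surviving fraction relative to the median of DMSO-only wells. Luminescence was taken after 10 minutes at room temperature.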

[2] = compound: CCc1cc(Nc2nccc(-c3c(-c4ccc(OC)c(C(=O)Nc5c(F)cccc5F)c4)nc4ccccn34)n2)c(OC)cc1N1CCC(N2CCN(S(C)(=O)=O)CC2)CC1; test: as above; settings: exposure time: 5 days
How it was run: as §1

Test System	surviving fraction ([1]; 0.5 nM)	surviving fraction ([1]; 1 nM)	surviving fraction ([1]; 5 nM)	surviving fraction ([1]; 10 nM)	surviving fraction ([1]; 50 nM)	surviving fraction ([1]; 100 nM)	surviving fraction ([1]; 500 nM)	surviving fraction ([1]; 1000 nM)	surviving fraction ([2]; 0.5 nM)	surviving fraction ([2]; 1 nM)	surviving fraction ([2]; 5 nM)	surviving fraction ([2]; 10 nM)	surviving fraction ([2]; 50 nM)	surviving fraction ([2]; 100 nM)	surviving fraction ([2]; 500 nM)	surviving fraction ([2]; 1000 nM)
U2OS BONE	0.98 ± 0.036	1.02 ± 0.019	0.9927 ± 0.0096	0.92 ± 0.05	0.794 ± 0.044	0.693 ± 0.029	0.277 ± 0.0042	0.202 ± 0.0051	0.992 ± 0.02	1 ± 0.017	1.06 ± 0.025	1.031 ± 0.0015	1.06 ± 0.023	1.06 ± 0.035	1.01 ± 0.013	0.975 ± 0.019
SKBR3 BREAST	0.863 ± 0.093	0.88 ± 0.073	0.833 ± 0.23	0.763 ± 0.15	0.434 ± 0.073	0.204 ± 0.043	0.058 ± 0.0053	0.0507 ± 0.0047	1.04 ± 0.12	1.06 ± 0.18	1.05 ± 0.057	0.99 ± 0.089	0.983 ± 0.13	1.01 ± 0.099	0.849 ± 0.082	0.664 ± 0.048
SAOS2 BONE	1.11 ± 0.018	1.07 ± 0.016	0.98 ± 0.083	0.931 ± 0.04	0.636 ± 0.018	0.52 ± 0.014	0.174 ± 0.0087	0.0977 ± 0.0011	1.1 ± 0.024	1.04 ± 0.025	1.11 ± 0.035	1.144 ± 0.0087	1.09 ± 0.016	1.19 ± 0.025	1.16 ± 0.045	1.11 ± 0.018
22RV1 PROSTATE	1.03 ± 0.041	0.999 ± 0.072	0.876 ± 0.085	0.796 ± 0.021	0.516 ± 0.065	0.312 ± 0.043	0.106 ± 0.019	0.0857 ± 0.0063	1 ± 0.014	1.02 ± 0.023	0.989 ± 0.014	0.953 ± 0.026	1.01 ± 0.024	0.991 ± 0.057	0.989 ± 0.033	0.946 ± 0.042
CAL51 BREAST	0.988 ± 0.062	0.901 ± 0.047	0.943 ± 0.064	0.91 ± 0.053	0.731 ± 0.023	0.442 ± 0.035	0.123 ± 0.0027	0.0447 ± 0.0022	0.995 ± 0.06	1 ± 0.025	0.998 ± 0.029	1.03 ± 0.068	1.02 ± 0.017	1.04 ± 0.05	1.03 ± 0.043	1.03 ± 0.042
OSHN BONE	1.03 ± 0.024	1.03 ± 0.035	1.02 ± 0.029	1.01 ± 0.03	1.1 ± 0.0058	1.03 ± 0.034	0.447 ± 0.016	0.267 ± 0.0045	1.02 ± 0.018	1.04 ± 0.036	1.03 ± 0.038	1.06 ± 0.034	1.02 ± 0.033	1.05 ± 0.04	1.01 ± 0.023	1.04 ± 0.048
A549 LUNG	0.958 ± 0.049	0.939 ± 0.044	0.927 ± 0.026	0.936 ± 0.035	1.02 ± 0.032	0.886 ± 0.016	0.325 ± 0.024	0.158 ± 0.0036	0.954 ± 0.022	0.994 ± 0.045	0.995 ± 0.032	1.02 ± 0.033	0.983 ± 0.029	1.04 ± 0.036	1.01 ± 0.042	1.01 ± 0.034
SUM149 BREAST	1.02 ± 0.042	1.1 ± 0.1	0.963 ± 0.067	0.9127 ± 0.0085	0.697 ± 0.036	0.474 ± 0.03	0.161 ± 0.0021	0.0763 ± 0.0038	1.07 ± 0.059	1.14 ± 0.027	1.09 ± 0.035	1.12 ± 0.037	1.06 ± 0.14	1.11 ± 0.13	1.08 ± 0.081	1.05 ± 0.12
SUM44 BREAST	0.914 ± 0.026	0.974 ± 0.044	1.01 ± 0.027	0.957 ± 0.04	0.864 ± 0.043	0.747 ± 0.017	0.225 ± 0.028	0.151 ± 0.0051	1.07 ± 0.041	1.04 ± 0.015	1.06 ± 0.037	1.07 ± 0.023	1.07 ± 0.062	1.155 ± 0.0075	0.9687 ± 0.0055	0.994 ± 0.034
BT549 BREAST	1.09 ± 0.18	1.02 ± 0.12	0.952 ± 0.095	0.939 ± 0.14	0.569 ± 0.085	0.381 ± 0.035	0.12 ± 0.013	0.0733 ± 0.0021	1.03 ± 0.098	1.06 ± 0.033	1.14 ± 0.097	1.13 ± 0.082	1.07 ± 0.1	1.12 ± 0.1	1.08 ± 0.074	0.852 ± 0.019
YAMATO SYNOVIAL	1.15 ± 0.087	1.09 ± 0.066	1.01 ± 0.073	0.952 ± 0.057	0.469 ± 0.062	0.355 ± 0.0076	0.189 ± 0.014	0.272 ± 0.012	1.32 ± 0.085	1.34 ± 0.1	1.44 ± 0.085	1.28 ± 0.023	1.36 ± 0.066	1.42 ± 0.1	1.2 ± 0.19	0.873 ± 0.091
VP229 BREAST	1.13 ± 0.11	1.07 ± 0.062	0.948 ± 0.046	0.844 ± 0.032	0.513 ± 0.078	0.383 ± 0.071	0.135 ± 0.02	0.0757 ± 0.018	1.13 ± 0.059	1.08 ± 0.033	1.24 ± 0.11	1.17 ± 0.063	1.09 ± 0.13	1.09 ± 0.052	1.18 ± 0.17	0.875 ± 0.12
SJSA1 BONE	1.04 ± 0.035	0.976 ± 0.023	0.989 ± 0.058	0.941 ± 0.027	0.743 ± 0.059	0.671 ± 0.028	0.2 ± 0.011	0.116 ± 0.0015	1.03 ± 0.038	0.99 ± 0.056	1.08 ± 0.066	1.1 ± 0.065	1.07 ± 0.013	1.09 ± 0.024	1.03 ± 0.056	1.03 ± 0.013
SCC90 HEADNECK	0.913 ± 0.076	0.916 ± 0.037	0.892 ± 0.034	0.904 ± 0.15	0.674 ± 0.074	0.555 ± 0.077	0.194 ± 0.025	0.222 ± 0.054	1 ± 0.084	1.01 ± 0.11	1.02 ± 0.052	1.1 ± 0.023	1.02 ± 0.046	1.12 ± 0.21	1.06 ± 0.23	1.14 ± 0.046
KPD BONE	0.973 ± 0.033	0.95 ± 0.056	0.908 ± 0.032	0.852 ± 0.032	0.486 ± 0.028	0.313 ± 0.019	0.0613 ± 0.0067	0.038 ± 0.0046	0.907 ± 0.066	0.947 ± 0.071	1 ± 0.021	1.03 ± 0.062	0.989 ± 0.021	1.049 ± 0.0079	0.89 ± 0.081	0.849 ± 0.036
SG32 HEADNECK	1.08 ± 0.076	1.09 ± 0.38	1.02 ± 0.11	1.34 ± 0.31	1.04 ± 0.095	0.982 ± 0.14	0.432 ± 0.086	0.263 ± 0.044	1.07 ± 0.22	1.11 ± 0.026	1.15 ± 0.089	1.17 ± 0.15	1.15 ± 0.23	1.21 ± 0.1	1.6 ± 0.59	1.15 ± 0.017
MDAMB157 BREAST	0.899 ± 0.061	0.963 ± 0.12	0.802 ± 0.051	0.812 ± 0.042	0.705 ± 0.079	0.618 ± 0.088	0.432 ± 0.042	0.332 ± 0.02	0.834 ± 0.049	0.96 ± 0.15	0.973 ± 0.12	0.996 ± 0.052	0.934 ± 0.058	1.04 ± 0.094	0.94 ± 0.06	0.982 ± 0.14
HCC1395 BREAST	0.864 ± 0.096	0.956 ± 0.025	0.998 ± 0.076	1.03 ± 0.029	0.883 ± 0.21	0.846 ± 0.13	0.766 ± 0.1	0.581 ± 0.15	0.903 ± 0.1	0.903 ± 0.17	0.965 ± 0.24	0.916 ± 0.037	1.13 ± 0.2	0.831 ± 0.19	0.855 ± 0.22	0.934 ± 0.17
SIHA CERVIX	1.01 ± 0.032	1.02 ± 0.07	0.974 ± 0.062	0.93 ± 0.063	0.656 ± 0.025	0.536 ± 0.024	0.232 ± 0.0035	0.161 ± 0.011	1.01 ± 0.019	1.04 ± 0.071	1.06 ± 0.055	1.11 ± 0.046	1.05 ± 0.084	1.18 ± 0.053	1.02 ± 0.037	1.09 ± 0.034
